This is an account of results in patent US20230002346A1, “NEW COMPOUNDS AND METHODS” (BenevolentAl Bio Limited, priority 2019, published 2023).

In brackets after ≈: the same amount, converted by molar mass.

Data set [1] is described as follows: Brain to plasma (B:P) ratio in rat. In kind it is in vivo, Sprague Dawley Rats. The note with it: male, Sprague Dawley, po, p.o. 3.0 mg/kg, 30% HPBC in water; for Kp: timepoints averaged 0.5-4 h. The protocol:
Male Sprague Dawley Rats 300-350 g (Charles River, UK) were group housed, n=3, under a 12 h light/dark cycle with food and water available ad libitum. At 17:00 on the day prior to dosing all food was removed. On the day of dosing animals were weighed, tail marked and dosed via oral gavage with compound at 3 mg/kg in a volume of 5 mL/kg. Animals were culled at 30 min, 1 h and 4 h post dose via intra-peritoneal administration of pentobarbital. Post mortem blood was withdrawn via cardiac puncture, and briefly stored in K2 EDTA blood tubes on ice before being spun at 14,000 g for 4 min at 4° C. Plasma was withdrawn into a 96 well plate, placed on dry ice and stored at −80° C. Brains were quickly dissected and placed on dry ice before storage at −80° C. Bioanalysis of plasma and brain samples is performed as detailed below. Methods were prepared with guidance from industry standard documents.^i,ii […] Calibration lines are prepared in control male Sprague-Dawley Rat plasma at known concentrations in the range of 1-10000 ng/mL by spiking 2.5 μL of calibration spiking solution into 25 μL control plasma. Experimental samples are thawed to RT and 25 μL aliquots are extracted alongside the calibration lines using protein precipitation (agitation for at least 5 min at RT with 400 μL of MeCN containing 25 ng/mL tolbutamide as an internal standard). Protein precipitates are separated from the extracted test compound by centrifugation at 4000 rpm for 5 min, 4° C. […] Samples are analysed by UPLC-MS/MS on either an API6500 QTrap or Waters 30 TQS mass spectrometer using previously optimised analytical MRM (multiple reaction monitoring) methods, specific to the test compound. The concentration of test compound in isolated samples is determined following analysis of the samples against the two replicates of the calibration line, injected before and after the sample set with an appropriate regression and weighting used. Only samples within 20% of the expected test concentration are included in the calibration line and any samples that fall outside of the limits of the calibration line will be deemed to be less than or above the limit of quantification (LLoQ/ALoQ). […] Calibration lines are prepared in control male Sprague-Dawley Rat brain homogenate at known concentrations in the range of 3-30000 ng/g by spiking 2.5 μL of calibration spiking solution into 25 μL control homogenate. To prepare control and experimental brain homogenates, brains are thawed, weighed and a volume of diluent added (water) in the ratio of 2 mL per gram of brain. Homogenisation of brains is performed by bead-beater homogenisation using Precellys Evolution and CK14 7 mL small ceramic bead homogenisation tubes. Aliquots of 25 μL experimental sample are extracted alongside the calibration lines using protein precipitation (agitation for at least 5 min at RT with 400 μL of MeCN containing 25 ng/mL tolbutamide as an internal standard). Protein precipitates are separated from the extracted test compound by centrifugation at 4000 rpm for 5 min, 4° C. […] Samples are analysed by UPLC-MS/MS on either an API6500 QTrap or Waters TQS mass spectrometer using previously optimised analytical MRM (multiple reaction monitoring) methods, specific to the test compound. The concentration of test compound in isolated samples is determined following analysis of the samples against the two replicates of the calibration line, injected before and after the sample set with an appropriate regression and weighting used. Only samples within 20% of the expected test concentration are included in the calibration line and any samples that fall outside of the limits of the calibration line will be deemed to be less than or above the limit of quantification (LLoQ/ALoQ). Total brain to plasma (B:P) ratios were calculated by dividing the concentration in the brain by the concentration in plasma for each timepoint. The mean brain to plasma ratio is calculated by averaging these brain to plasma ratios across certain timepoints. […]

In data set [2] the target is T1, hERG channel (Homo sapiens, UniProt Q12809).
T1 construct: expressed in transfected cells
T1 sequence (Q12809 whole entry): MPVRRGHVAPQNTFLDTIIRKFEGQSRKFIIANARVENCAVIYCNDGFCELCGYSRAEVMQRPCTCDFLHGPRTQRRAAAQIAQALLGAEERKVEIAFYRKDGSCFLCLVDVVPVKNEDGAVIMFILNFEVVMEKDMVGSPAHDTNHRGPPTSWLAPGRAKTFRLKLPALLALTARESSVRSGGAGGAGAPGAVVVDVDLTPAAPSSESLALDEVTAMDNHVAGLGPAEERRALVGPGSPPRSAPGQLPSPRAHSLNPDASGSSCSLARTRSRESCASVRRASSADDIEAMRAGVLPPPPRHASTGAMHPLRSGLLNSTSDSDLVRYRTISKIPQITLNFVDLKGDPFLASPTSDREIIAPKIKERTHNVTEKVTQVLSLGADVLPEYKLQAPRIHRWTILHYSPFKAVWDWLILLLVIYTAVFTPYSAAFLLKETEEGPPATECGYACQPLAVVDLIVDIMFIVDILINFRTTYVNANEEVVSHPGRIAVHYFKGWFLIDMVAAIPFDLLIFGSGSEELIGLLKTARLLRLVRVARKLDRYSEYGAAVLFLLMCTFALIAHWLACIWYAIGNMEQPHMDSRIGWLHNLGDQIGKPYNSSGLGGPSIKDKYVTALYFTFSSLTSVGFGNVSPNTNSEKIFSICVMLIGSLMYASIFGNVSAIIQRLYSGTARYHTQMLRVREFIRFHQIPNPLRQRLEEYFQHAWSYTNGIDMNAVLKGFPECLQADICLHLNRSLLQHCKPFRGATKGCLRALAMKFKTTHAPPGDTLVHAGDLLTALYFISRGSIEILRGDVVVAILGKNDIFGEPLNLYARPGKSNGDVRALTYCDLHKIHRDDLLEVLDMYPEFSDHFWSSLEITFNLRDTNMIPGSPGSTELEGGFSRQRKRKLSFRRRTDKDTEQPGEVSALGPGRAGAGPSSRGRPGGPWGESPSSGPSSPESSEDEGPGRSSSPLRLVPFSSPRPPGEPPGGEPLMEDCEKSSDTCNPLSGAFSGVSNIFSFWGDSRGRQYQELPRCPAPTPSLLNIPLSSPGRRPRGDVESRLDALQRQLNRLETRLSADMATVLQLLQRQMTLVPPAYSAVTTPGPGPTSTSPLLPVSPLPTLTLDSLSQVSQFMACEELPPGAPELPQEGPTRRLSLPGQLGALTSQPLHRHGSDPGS
Nature of the data set: hERG assay (QPatch automated patch clamp, CHO cells). The class given is cell-based. The note with it: CHO cells expressing hERG, whole-cell patch clamp, 0.003 μM to 10 μM. The source says:
The human ether-a-go-go related gene (hERG) potassium channel (Kv11.1) contributes to human cardiac action potential repolarisation. Inhibition of hERG channels can prolong the human cardiac action potential, resulting in QTc prolongation and potentially lethal arrhythmias (e.g. Torsade de Pointes).
Test samples were screened against the hERG channel on a QPatch 48 gigaseal automated patch clamp platform, using a Chinese Hamster Ovary (CHO) cell line stably expressing the human ether-á-go-go related gene, which encodes the hERG channel. All recordings were made in the conventional whole-cell configuration and performed at RT ([…]) using standard single hole chips (Rchip 1.5-4M0). Series resistance (4-15Mc) was compensated by >80%. Currents were elicited from a holding potential of −90 mV using the industry standard “^+40/−40” voltage protocol, which was applied at a stimulus frequency of 0.1 Hz. On achieving the whole-cell configuration, vehicle (0.1% DMSO v/v in external recording solution) was applied to each cell in two bolus additions with a 2 min recording period between each addition. Following the vehicle period, eight increasing concentrations of test sample were applied from 0.003 μM to 10 μM as a single bolus addition per test concentration, and the effects on hERG tail current amplitude measured during the 2 min recording period. Each eight-point concentration-response curve was constructed using cumulative single sample additions of each concentration to the same cell. The positive control used in this study was verapamil hydrochloride (Tocris, Cat #0654, Batch #5A/61673) and prepared to a stock concentration of 10 mM in 100% DMSO and kept as frozen aliquots.
Data analysis: All cells passing the QC parameters (i.e. >200 pA outward current, membrane resistance and rundown) are selected as ‘passed QC’ using the QPatch software, which then calculates the mean peak current for the last three sweeps at the end of each concentration application period from the cursor positions defined. Percent inhibition is calculated for each test concentration application period as the reduction in mean cursor value (peak current or charge) relative to the cursor value measured at the end of the control (i.e. vehicle) period. The percent inhibition values from each cell are used to construct concentration-response curves employing a four parametric logistic fit with 0 and 100% inhibition levels fixed at very low and very high concentrations, respectively, and a free Hill slope factor. The IC50 (50% inhibitory concentration) and Hill coefficient are then determined, but only data from cells with Hill slopes within 0.5>nH<2.0 are included. The IC50 data reported below represents the mean (and S.D.) of at least three separate cells (N≥3). […] Compounds of the invention show reduced hERG inhibitory activity compared to the reference examples.
(In general: hERG is a cardiac potassium channel; its block is linked to QT prolongation.)

A short description of data set [3]: Kinetic aqueous solubility assay. The note with it: aqueous buffer, kinetic from dmso stock, 0.05M potassium phosphate buffer pH 7.4, 250 μM spike, RT. The class given is physicochemical. On the procedure:
Using a 10 mM stock solution of test compound in 100% DMSO, test compounds were spiked into 0.05M potassium phosphate buffer (pH 7.4) at a final concentration of 250 μM. Samples in buffer (n=2 aqueous samples, in 96-well plates) were allowed to equilibrate at RT on an orbital shaker for 30 min (300 rpm) to induce precipitation of test compounds. The appearance of each sample was determined by visual examination and noted (clear, cloudy, precipitate observed etc.). […] The concentration of compound in phosphate buffer filtrate was determined by comparing the UV absorbance peak area of each replicate against that of the calibration standards. […] Compounds of the invention have much improved solubility compared to the reference examples.

The nature of data set [4]: Rat PK profile (bioavailability, clearance, half-life). The note with it: male, Sprague Dawley, plasma, i.v. dose 1 mg/kg; for clearance / half-life: iv; for half-life: read-out: T½ (converted); for bioavailability: po, p.o. dose 3 mg/kg. In kind it is in vivo. On the procedure:
Male Sprague Dawley Rats 300-350 g (Charles River, UK) were group housed, n=3, under a 12 h light/dark cycle with food and water available ad libitum. At 17:00 on the day prior to dosing all food was removed. On the day of dosing animals were weighed, tail marked and dosed via oral gavage with compound at 3 mg/kg in a volume of 5 mL/kg. Animals were culled at 30 min, 1 h and 4 h post dose via intra-peritoneal administration of pentobarbital. Post mortem blood was withdrawn via cardiac puncture, and briefly stored in K2 EDTA blood tubes on ice before being spun at 14,000 g for 4 min at 4° C. Plasma was withdrawn into a 96 well plate, placed on dry ice and stored at −80° C. Brains were quickly dissected and placed on dry ice before storage at −80° C. Bioanalysis of plasma and brain samples is performed as detailed below. Methods were prepared with guidance from industry standard documents.^i,ii
A 10 mM DMSO stock is used to prepare spiking solutions of test compound in the range of 10-100,000 ng/mL in diluent (MeCN:water, 1;1). Calibration lines are prepared in control male Sprague-Dawley Rat plasma at known concentrations in the range of 1-10000 ng/mL by spiking 2.5 μL of calibration spiking solution into 25 μL control plasma. Experimental samples are thawed to RT and 25 μL aliquots are extracted alongside the calibration lines using protein precipitation (agitation for at least 5 min at RT with 400 μL of MeCN containing 25 ng/mL tolbutamide as an internal standard). Protein precipitates are separated from the extracted test compound by centrifugation at 4000 rpm for 5 min, 4° C. The resulting supernatants are diluted in a ratio of 1:2 with a relevant diluent (e.g. 0.1% formic acid in water or 1:1 MeOH:water). Samples are analysed by UPLC-MS/MS on either an API6500 QTrap or Waters 30 TQS mass spectrometer using previously optimised analytical MRM (multiple reaction monitoring) methods, specific to the test compound. The concentration of test compound in isolated samples is determined following analysis of the samples against the two replicates of the calibration line, injected before and after the sample set with an appropriate regression and weighting used. Only samples within 20% of the expected test concentration are included in the calibration line and any samples that fall outside of the limits of the calibration line will be deemed to be less than or above the limit of quantification (LLoQ/ALoQ).
Pharmacokinetic parameters such as bioavailability (% F), clearance (CL), half-life (T½) and volume of distribution are calculated by non-compartmental analysis using Phoenix Winnonlin 64 software (build 8.0). The bioavailability was calculated from p.o. dosed rats, whereas the clearance and half-life were calculated from i.v. dosed rats. Briefly, in vivo plasma concentrations, timepoints and dose values are imported into the software in a compatible format. Plasma concentration for each animal is plotted against time, and the elimination phase identified and selected. The area under the curve for each plot is calculated using a linear trapezoidal linear interpolation from which pharmacokinetic parameters can subsequently be determined. […] Compounds of the invention have much improved clearance (CL) and half-life (T½) compared to the reference examples.

The Kp is tissue or fluid exposure divided by exposure in the circulation. Regarding `COc1ccc(-n2cc(C(=O)Nc3ccc(OC(F)(F)Cl)cc3)ccc2=O)cn1` [Example 13, N-[4-[Chloro(difluoro)methoxy]phenyl]-1-(6-methoxy-3-pyridyl)-6-oxo-pyridine-3-carboxamide], in data set [1], the partition ratio (Kp) is 0.79.
One may read the IC50 as the concentration that inhibits the measured activity by half. A higher IC50 goes with a need for much substance. As for `O=C(Nc1ccc(OC(F)(F)Cl)cc1)c1ccc(=O)n(-c2ccc(F)c(F)c2)c1` [Example 24, N-[4-(Chlorodifluoromethoxy)phenyl]-1-(3,4-difluorophenyl)-6-oxo-1,6-dihydropyridine-3-carboxamide], the IC50 in data set [2] is over 10 µM. Besides, in data set [1], the partition ratio (Kp) is 0.68.
In turn, `COc1cccc(-n2cc(C(=O)Nc3ccc(OC(F)(F)Cl)cc3)ccc2=O)c1` [Example 35, N-[4-(Chlorodifluoromethoxy)phenyl]-1-(3-methoxyphenyl)-6-oxo-1,6-dihydropyridine-3-carboxamide] yielded a half-maximal inhibitory concentration (IC50) in data set [2] of over 10 µM. For the same compound, the Kp at 1 h in data set [1] (timepoint 1 h) is 1.11.
A word on the solubility: it is the dissolved amount per volume that the medium holds. Lower therefore signals a poorly soluble substance. In data set [3], `O=C(Nc1ccc(OC(F)(F)Cl)cc1)c1ccc(=O)n(-c2ccc(F)cc2)c1` [Example 42, N-[4-(Chlorodifluoromethoxy)phenyl]-1-(4-fluorophenyl)-6-oxo-1,6-dihydropyridine-3-carboxamide] returned a solubility at 30 min of 120 µM (≈ 49.1 µg/mL). In addition, the concentration ratio (Kp) in data set [1] is 0.98.
As for `Cc1ccc(-n2cc(C(=O)Nc3ccc(OC(F)(F)Cl)cc3)ccc2=O)cn1` [Example 65, N-[4-(Chlorodifluoromethoxy)phenyl]-6′-methyl-2-oxo-2H-[1,3′-bipyridine]-5-carboxamide], in data set [3], the solubility at 30 min is 170 µM (≈ 69 µg/mL). The Kp in data set [1] was 0.31.
One may read the clearance as the rate of elimination divided by the concentration. With `Cn1cc(C(=O)Nc2ccc(OC(F)(F)Cl)cc2)cc(-c2cccnc2)c1=O` [Example 81, N-[4-[Chloro(difluoro)methoxy]phenyl]-1-methyl-6-oxo-5-(3-pyridyl)pyridine-3-carboxamide], in data set [4], the clearance amounted to 3 mL/min/kg, the half-life was 6.2 h and the bioavailability was determined as 102%.
Turning to `Cn1cc(C(=O)Nc2ccc(OC(F)(F)Cl)cc2)cc(-c2ccccc2)c1=O` [Example 88, N-[4-[Chloro(difluoro)methoxy]phenyl]-1-methyl-6-oxo-5-phenyl-pyridine-3-carboxamide], the Kp in data set [1] was 0.69.
`O=C(Nc1ccc(OC(F)(F)Cl)cc1)c1cnc(N2CC[C@@H](O)C2)c(-c2ccn[nH]2)c1` [Ref. ex. 1, N-[4-[Chloro(difluoro)methoxy]phenyl]-6-[(3R)-3-hydroxypyrrolidin-1-yl]-5-(1H-pyrazol-5-yl)pyridine-3-carboxamide, reference compound]: in data set [4], the clearance is 22 mL/min/kg, the half-life is 2.1 h and the bioavailability amounted to 4%.
Consider `O=C(Nc1ccc(OC(F)(F)F)cc1)c1cncc(-c2cccnc2)c1` [Ref. ex. 4, 5-(3-Pyridyl)-N-[4-(trifluoromethoxy)phenyl]pyridine-3-carboxamide, reference compound], for which, in data set [4], the clearance stood at 12 mL/min/kg, the half-life was 1.2 h and the bioavailability turned out to be 113%. In data set [2], this compound displayed an IC50 of 4.7 µM. Besides, the solubility at 30 min in data set [3] is under 5 µM.
